Data from US12180193B2, “Accelerating fibrosarcoma protein degrading compounds and associated methods of use” (Arvinas Operations, Inc., priority 2020, dated 2024).

Key:
BRAF V600E = molecular target: T1, BRAF V600E (Homo sapiens, UniProt P15056, V600E); assay: Cellular assay of target protein degradation, T-Rex 293 cells stably transfected with HA-BRAF_V600E (HA immunofluorescence, high content imaging); assay type: cell-based; conditions: T-Rex 293 HA-BRAF V600E; for DC50: half maximal degradation, read-out: BRaf V600E DC50; for Dmax: maximum degradation observed
T1 construct: expressed in transfected cells
T1 sequence (P15056 whole entry V600E): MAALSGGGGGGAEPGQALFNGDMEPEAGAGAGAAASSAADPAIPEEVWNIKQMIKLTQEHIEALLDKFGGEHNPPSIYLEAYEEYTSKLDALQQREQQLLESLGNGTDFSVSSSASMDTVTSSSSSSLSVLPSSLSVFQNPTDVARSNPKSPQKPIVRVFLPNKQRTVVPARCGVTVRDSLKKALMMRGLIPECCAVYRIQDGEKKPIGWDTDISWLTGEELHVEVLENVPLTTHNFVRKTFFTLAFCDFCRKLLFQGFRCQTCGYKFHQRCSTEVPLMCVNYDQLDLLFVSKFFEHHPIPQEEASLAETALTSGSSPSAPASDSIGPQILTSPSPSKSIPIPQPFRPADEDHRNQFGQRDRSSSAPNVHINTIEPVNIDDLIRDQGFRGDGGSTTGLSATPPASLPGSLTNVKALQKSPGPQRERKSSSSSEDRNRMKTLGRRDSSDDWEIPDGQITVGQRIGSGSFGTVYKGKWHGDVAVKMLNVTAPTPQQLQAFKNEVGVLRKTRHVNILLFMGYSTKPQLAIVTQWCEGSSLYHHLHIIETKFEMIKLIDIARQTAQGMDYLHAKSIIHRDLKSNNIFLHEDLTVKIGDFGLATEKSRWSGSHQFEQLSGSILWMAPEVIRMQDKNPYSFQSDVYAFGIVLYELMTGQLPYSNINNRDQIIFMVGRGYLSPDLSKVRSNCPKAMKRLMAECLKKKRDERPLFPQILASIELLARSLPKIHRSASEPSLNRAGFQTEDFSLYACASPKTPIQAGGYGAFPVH
Method: Protocol for a cellular assay of target protein degradation (T-Rex 293 cells). T-Rex 293 cells were purchased from Invitrogen (#R71007), and stably transfected with a pcDNA4/TO_HA-BRAF_V600E construct, using 400 ug Zeocin for selection. V600e cells are plated in Dulbecco's Modified Eagle Medium (DMEM; Gibco #11965118) containing 10% fetal bovine serum (FBS; Gibco #16000044) and 1 ng/mL doxycycline (Selleckchem #4163) at a density of 5,000 cells/well in 50 μl on poly-D-lysine (PDL) coated, black clear bottom 96-well plates (Corning #354640) and incubated for 24 hours at 37° C. with 5% C02. The following day 50 ul of tested compound was added at 2x concentration in DMEM with a final concentration ranging from 1 μM to 0.1 nM in 0.1% dimethylsulfoxide (DMSO), and incubated for 24 hours at 37° C. with 5% CO2. At the end of the experimental treatment, the media was flicked off and cells washed once with phosphate-buffered saline (PBS)++ (PBS with CaCl and MgCl) and gently replacing with 200 μl PBS++ per well. The PBS++ was removed and 50 uL 4% paraformaldehyde (PFA; EMS #15710) in PBS++ was added, and incubate at room temperature for 15 minutes. Cells were washed once with PBS++ and 50 uL 0.1% Triton X-100 (Fisher #BP151-500) in PBS++ was added. Plate was incubate for 5 minutes at room temperature. Cells were was once with PBS++. Cells were blocked with 100 uL Licor blocking buffer (Licor #927-50000) for 1 hour at room temperature. Next, 50 uL of HA antibody (CST #3724) at 1:1000 in Licor blocking buffer was added, and the plate incubate overnight at 4° C. The plates were parafilmed to prevent evaporation. Plate was washed three times with 200 uL PBS++. Fifty microliters of HCS secondary antibody solution [1:1000 Hoechst (Invitrogen #H3570), 1:1000 phalloidin (Invitrogen #A22287) and 1:5000 Alexa fluor (Invitrogen #A11008)] was added and incubated for 1 hour. Plate was wash three times with 200 uL PBS++, and imaged on a high content reader (ImageXpress Micro XLS, Molecular Devices).
(§1) The concentration of exemplary compound that leads to half maximal degradation (DC50) as well as the maximum degradation observed (Dmax, conventionally expressed as a percentage of control), which are below in Table 2 for the exemplary compounds of Table 1.

BRAF G466V = molecular target: T2, BRAF G466V (Homo sapiens, UniProt P15056, G466V); assay: Cellular assay of target protein degradation, T-Rex 293 cells stably transfected with HA-BRAF G466V (HA immunofluorescence, high content imaging); assay type: cell-based; conditions: T-Rex 293 HA-BRAF G466V; for DC50: half maximal degradation, read-out: BRaf G466V DC50; for Dmax: maximum degradation observed
T2 construct: expressed in transfected cells
T2 sequence (P15056 whole entry G466V): as the sequence (P15056 whole entry V600E) above, with G466V, E600V counted along it
Method: Protocol for a cellular assay of target protein degradation (T-Rex 293 cells). T-Rex 293 cells were purchased from Invitrogen (#R71007), and stably transfected with a pcDNA4/TO_HA-BRAF G466V construct, using 400 ug Zeocin for selection. G466V cells are plated in Dulbecco's Modified Eagle Medium (DMEM; Gibco #11965118) containing 10% fetal bovine serum (FBS; Gibco #16000044) and 0.75 ng/mL doxycycline (Selleckchem #4163) at a density of 5,000 cells/well in 50 μl on poly-D-lysine (PDL) coated, black clear bottom 96-well plates (Corning #354640) and incubated for 24 hours at 37° C. with 5% CO2. The following day 50 ul of tested compound was added at 2x concentration in DMEM with a final concentration ranging from 30 nM to 3 pM in 0.1% dimethylsulfoxide (DMSO), and incubated for 24 hours at 37° C. with 5% CO2. At the end of the experimental treatment, the media was flicked off and cells washed once with phosphate-buffered saline (PBS)++ (PBS with CaCl and MgCl) and gently replacing with 200 μl PBS++ per well. The PBS++ was removed and 50 uL 4% paraformaldehyde (PFA; EMS #15710) in PBS++ was added, and incubate at room temperature for 15 minutes. Cells were washed once with PBS++ and 50 uL 0.1% Triton X-100 (Fisher #BP151-500) in PBS++ was added. Plate was incubate for 5 minutes at room temperature. Cells were was once with PBS++. Cells were blocked with 100 uL Licor blocking buffer (Licor #927-50000) for 1 hour at room temperature. Next, 50 uL of HA antibody (CST #3724) at 1:1000 in Licor blocking buffer was added, and the plate incubate overnight at 4° C. The plates were parafilmed to prevent evaporation. Plate was washed three times with 200 uL PBS++. Fifty microliters of HCS secondary antibody solution [1:1000 Hoechst (Invitrogen #H3570), 1:1000 phalloidin (Invitrogen #A22287) and 1:5000 Alexa fluor (Invitrogen #A11008)] was added and incubated for 1 hour. Plate was wash three times with 200 uL PBS++, and imaged on a high content reader (ImageXpress Micro XLS, Molecular Devices).
as §1

Compound	DC50 (BRAF V600E) [nM]	Dmax (BRAF V600E) [%]	DC50 (BRAF G466V) [nM]	Dmax (BRAF G466V) [%]
O=C1CCC(N2Cc3cc(N4CCC(F)(CN5CC6(C5)CN(c5ccc(-c7cnc8[nH]cc(C(=O)c9c(F)ccc(NS(=O)(=O)N%10CC[C@@H](F)C%10)c9F)c8c7)cc5)C6)CC4)ccc3C2=O)C(=O)N1 (stereo partly drawn) [Compound 19, (3R)-N-[3-(5-{4-[6-({1-[2-(2,6-dioxopiperidin-3-yl)-1-oxo-2,3-dihydro-1H-isoindol-5-yl]-4-fluoropiperidin-4-yl}methyl)-2,6-diazaspiro[3.3]heptan-2-yl]phenyl}-1H-pyrrolo[2,3-b]pyridine-3-carbonyl)-2,4-difluorophenyl]-3-fluoropyrrolidine-1-sulfonamide]	5 to 50	35 to 70	1 to 10	35 to 70
COc1cc(N2CC3(C2)CN(CC2CCN(c4ccc(-c5cnc6[nH]cc(C(=O)c7c(F)ccc(NS(=O)(=O)N8CC[C@@H](F)C8)c7F)c6c5)cc4)CC2)[C@@H]3C)cc2c1C(=O)N(C1CCC(=O)NC1=O)C2 (stereo partly drawn) [Compound 20, (3R)-N-(3-{5-[4-(4-{[(1R)-6-[2-(2,6-dioxopiperidin-3-yl)-7-methoxy-1-oxo-2,3-dihydro-1H-isoindol-5-yl]-1-methyl-2,6-diazaspiro[3.3]heptan-2-yl]methyl}piperidin-1-yl)phenyl]-1H-pyrrolo[2,3-b]pyridine-3-carbonyl}-2,4-difluorophenyl)-3-fluoropyrrolidine-1-sulfonamide]	5 to 50	35 to 70	< 1	35 to 70
COc1cc(N2CC3(CN(CCc4ccc(-c5cnc6[nH]cc(C(=O)c7c(F)ccc(NS(=O)(=O)N8CC[C@@H](F)C8)c7F)c6c5)cc4)C3)C2)cc2c1C(=O)N(C1CCC(=O)NC1=O)C2 (stereo partly drawn) [Compound 21, (3R)-N-(3-{5-[4-(2-{6-[2-(2,6-dioxopiperidin-3-yl)-7-methoxy-1-oxo-2,3-dihydro-1H-isoindol-5-yl]-2,6-diazaspiro[3.3]heptan-2-yl}ethyl)phenyl]-1H-pyrrolo[2,3-b]pyridine-3-carbonyl}-2,4-difluorophenyl)-3-fluoropyrrolidine-1-sulfonamide]	5 to 50	35 to 70	1 to 10	35 to 70
COc1cc(CCCN2CC3(C2)CN(c2ccc(-c4cnc5[nH]cc(C(=O)c6c(F)ccc(NS(=O)(=O)N7CC[C@@H](F)C7)c6F)c5c4)cc2)C3)cc2c1C(=O)N(C1CCC(=O)NC1=O)C2 (stereo partly drawn) [Compound 22, (3R)-N-(3-{5-[4-(6-{3-[2-(2,6-dioxopiperidin-3-yl)-7-methoxy-1-oxo-2,3-dihydro-1H-isoindol-5-yl]propyl}-2,6-diazaspiro[3.3]heptan-2-yl)phenyl]-1H-pyrrolo[2,3-b]pyridine-3-carbonyl}-2,4-difluorophenyl)-3-fluoropyrrolidine-1-sulfonamide]	5 to 50	35 to 70	< 1	35 to 70
O=C1CCC(N2Cc3cc(N4CC[C@H]4COc4ccc(-c5cnc6[nH]cc(C(=O)c7c(F)ccc(NS(=O)(=O)N8CC[C@@H](F)C8)c7F)c6c5)cc4)ccc3C2=O)C(=O)N1 (stereo partly drawn) [Compound 23, (3R)-N-{3-[5-(4-{[(2S)-1-[2-(2,6-dioxopiperidin-3-yl)-1-oxo-2,3-dihydro-1H-isoindol-5-yl]azetidin-2-yl]methoxy}phenyl)-1H-pyrrolo[2,3-b]pyridine-3-carbonyl]-2,4-difluorophenyl}-3-fluoropyrrolidine-1-sulfonamide]	> 500		> 30	
O=C1CCC(N2Cc3cc(N4CCC(CN5CCN(c6ccc(-c7cnc8[nH]cc(C(=O)c9c(F)ccc(NS(=O)(=O)N%10CC[C@@H](F)C%10)c9F)c8c7)cn6)CC5)CC4)ccc3C2=O)C(=O)N1 (stereo partly drawn) [Compound 25, (3R)-N-[3-(5-{6-[4-({1-[2-(2,6-dioxopiperidin-3-yl)-1-oxo-2,3-dihydro-1H-isoindol-5-yl]piperidin-4-yl}methyl)piperazin-1-yl]pyridin-3-yl}-1H-pyrrolo[2,3-b]pyridine-3-carbonyl)-2,4-difluorophenyl]-3-fluoropyrrolidine-1-sulfonamide]	5 to 50	35 to 70	< 1	> 70
O=C1CCC(N2Cc3cc(N4CC5(CN(c6ccc(-c7cnc8[nH]cc(C(=O)c9c(F)ccc(NS(=O)(=O)N%10CC[C@@H](F)C%10)c9F)c8c7)cc6)C5)C4)ccc3C2=O)C(=O)N1 (stereo partly drawn) [Compound 26, (3R)-N-{3-[5-(4-{6-[2-(2,6-dioxopiperidin-3-yl)-1-oxo-2,3-dihydro-1H-isoindol-5-yl]-2,6-diazaspiro[3.3]heptan-2-yl}phenyl)-1H-pyrrolo[2,3-b]pyridine-3-carbonyl]-2,4-difluorophenyl}-3-fluoropyrrolidine-1-sulfonamide]	> 500	> 70	< 1	35 to 70
O=C1CC[C@H](NC(=O)c2ccc(N3CCN(CCc4ccc(-c5cnc6[nH]cc(C(=O)c7c(F)ccc(NS(=O)(=O)N8CC[C@@H](F)C8)c7F)c6c5)cc4)CC3)cc2F)C(=O)N1 [Compound 27, 4-[4-[2-[4-[3-[2,6-difluoro-3-[[(3R)-3-fluoropyrrolidin-1-yl]sulfonylamino]benzoyl]-1H-pyrrolo[2,3-b]pyridin-5-yl]phenyl]ethyl]piperazin-1-yl]-N-[(3S)-2,6-dioxo-3-piperidyl]-2-fluoro-benzamide]	5 to 50	> 70	1 to 10	35 to 70
O=C1CC[C@@H](NC(=O)c2ccc(N3CCN(CCc4ccc(-c5cnc6[nH]cc(C(=O)c7c(F)ccc(NS(=O)(=O)N8CC[C@@H](F)C8)c7F)c6c5)cc4)CC3)cc2F)C(=O)N1 [Compound 28, 4-{4-[2-(4-{3-[2,6-difluoro-3-({[(3R)-3-fluoropyrrolidin-1-yl]sulfonyl}amino)benzoyl]-1H-pyrrolo[2,3-b]pyridin-5-yl}phenyl)ethyl]piperazin-1-yl}-N-[(3R)-2,6-dioxopiperidin-3-yl]-2-fluorobenzamide]	50 to 500	> 70	< 1	35 to 70
O=C1CC[C@H](NC(=O)c2ccc(N3CCC(CN4CC5(C4)CN(c4ccc(-c6cnc7[nH]cc(C(=O)c8c(F)ccc(NS(=O)(=O)N9CC[C@@H](F)C9)c8F)c7c6)cc4)C5)CC3)cc2F)C(=O)N1 [Compound 29, 4-(4-{[6-(4-{3-[2,6-difluoro-3-({[(3R)-3-fluoropyrrolidin-1-yl]sulfonyl}amino)benzoyl]-1H-pyrrolo[2,3-b]pyridin-5-yl}phenyl)-2,6-diazaspiro[3.3]heptan-2-yl]methyl}piperidin-1-yl)-N-[(3S)-2,6-dioxopiperidin-3-yl]-2-fluorobenzamide]	5 to 50	35 to 70	1 to 10	35 to 70
